Source: paper PMC8674921 (ACS Omega, 2021)

What was measured:
[1] = biological target: hD2L receptor (CHO-D2LR cells) (Homo sapiens, UniProt P14416); test: Functional GPCR assay, intracellular calcium flux, hD2L; format: cell-based
[2] = biological target: T1, recombinant hMAO-B (Homo sapiens, UniProt P27338); test: hMAO-B inhibitory assay; format: biochemical
T1 sequence (P27338 1-520): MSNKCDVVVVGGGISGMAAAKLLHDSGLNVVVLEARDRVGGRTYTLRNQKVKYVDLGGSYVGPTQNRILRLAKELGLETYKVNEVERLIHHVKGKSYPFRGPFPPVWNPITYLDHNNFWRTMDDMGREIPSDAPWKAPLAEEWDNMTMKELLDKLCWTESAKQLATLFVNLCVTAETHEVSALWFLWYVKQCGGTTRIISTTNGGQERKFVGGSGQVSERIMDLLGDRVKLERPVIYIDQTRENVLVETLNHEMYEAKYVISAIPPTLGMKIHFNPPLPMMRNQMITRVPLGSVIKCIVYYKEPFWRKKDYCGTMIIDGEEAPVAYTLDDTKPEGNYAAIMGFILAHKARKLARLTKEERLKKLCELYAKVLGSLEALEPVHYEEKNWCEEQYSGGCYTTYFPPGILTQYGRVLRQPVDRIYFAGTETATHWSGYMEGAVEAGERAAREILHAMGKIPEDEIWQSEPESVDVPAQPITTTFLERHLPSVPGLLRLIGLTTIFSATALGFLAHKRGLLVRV

[3] = test system: BChE; conditions: read-out: IC50 BChE; cited from earlier work
[4] = biological target: human D2LR (transfected HEK-293 membrane homogenates) (Homo sapiens, UniProt P14416); test: Antagonist radioligand binding assay, D2L receptor; conditions: 50 μM kurarinone, [3H]methylspiperone, mean of duplicate
[5] = biological target: T2, hD4 receptor (CHO-D4R cells) (Homo sapiens, UniProt P21917); test: Functional GPCR assay, cAMP level; format: cell-based
T2 sequence (P21917 1-419): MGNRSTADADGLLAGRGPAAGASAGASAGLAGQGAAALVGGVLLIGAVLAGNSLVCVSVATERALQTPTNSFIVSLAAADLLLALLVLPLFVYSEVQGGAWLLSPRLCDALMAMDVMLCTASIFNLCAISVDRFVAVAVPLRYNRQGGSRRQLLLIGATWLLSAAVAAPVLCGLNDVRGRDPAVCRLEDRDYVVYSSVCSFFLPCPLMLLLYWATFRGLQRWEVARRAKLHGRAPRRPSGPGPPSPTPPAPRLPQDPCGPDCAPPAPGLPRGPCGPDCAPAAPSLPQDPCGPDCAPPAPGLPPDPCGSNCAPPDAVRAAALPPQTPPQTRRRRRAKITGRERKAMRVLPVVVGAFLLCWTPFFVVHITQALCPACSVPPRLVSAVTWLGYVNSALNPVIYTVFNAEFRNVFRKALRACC

[6] = biological target: human D3R (CHO-D3R membrane homogenates) (Homo sapiens, UniProt P35462); test: Antagonist radioligand binding assay, D3 receptor; conditions: read-out: % inhibition of control-specific binding
[7] = test system: BACE 1; conditions: read-out: IC50 BACE 1; cited from earlier work
[8] = biological target: human V1AR (recombinant CHO-V1AR membrane homogenates) (Homo sapiens, UniProt P37288); test: Agonist radioligand binding assay, vasopressin V1A receptor; conditions: read-out: % inhibition of control-specific binding
[9] = biological target: GABAA receptors; conditions: read-out: EC50 GABAA receptors modulating effect; cited from earlier work
[10] = biological target: human D1R (recombinant CHO-D1R membrane homogenates) (Homo sapiens, UniProt P21728); test: Antagonist radioligand binding assay, D1 receptor; conditions: 50 μM kurarinone, [3H]SCH-23390, mean of duplicate
[11] = biological target: T3, h5-HT1A receptor (Ba/F3-5-HT1AR cells) (Homo sapiens, UniProt P08908); test: Functional GPCR assay, intracellular calcium mobilization, h5-HT1A
T3 sequence (P08908 1-422): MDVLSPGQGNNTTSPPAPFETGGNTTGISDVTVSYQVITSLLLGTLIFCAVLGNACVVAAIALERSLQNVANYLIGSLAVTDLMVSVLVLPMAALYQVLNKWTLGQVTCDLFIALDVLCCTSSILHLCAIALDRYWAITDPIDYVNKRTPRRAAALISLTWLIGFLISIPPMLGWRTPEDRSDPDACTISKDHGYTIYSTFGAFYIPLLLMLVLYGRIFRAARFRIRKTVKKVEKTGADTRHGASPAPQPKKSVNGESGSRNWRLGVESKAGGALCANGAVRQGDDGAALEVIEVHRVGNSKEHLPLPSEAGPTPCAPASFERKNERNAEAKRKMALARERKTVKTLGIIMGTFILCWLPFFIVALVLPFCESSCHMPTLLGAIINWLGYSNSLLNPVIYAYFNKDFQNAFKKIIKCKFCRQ

[12] = biological target: hD1 receptor (CHO-D1R cells) (Homo sapiens, UniProt P21728); test: Functional GPCR assay, cAMP level; format: cell-based
[13] = biological target: T4, human D4R (CHO-D4R membrane homogenates) (Homo sapiens, UniProt P21917); test: Antagonist radioligand binding assay, D4 receptor; conditions: 50 μM kurarinone, [3H]methylspiperone, mean of duplicate
T4 sequence (P21917 1-419): T2 sequence (P21917 1-419)

[14] = biological target: T5, recombinant hMAO-A (Homo sapiens, UniProt P21397); test: hMAO-A inhibitory assay; format: biochemical
T5 sequence (P21397 1-527): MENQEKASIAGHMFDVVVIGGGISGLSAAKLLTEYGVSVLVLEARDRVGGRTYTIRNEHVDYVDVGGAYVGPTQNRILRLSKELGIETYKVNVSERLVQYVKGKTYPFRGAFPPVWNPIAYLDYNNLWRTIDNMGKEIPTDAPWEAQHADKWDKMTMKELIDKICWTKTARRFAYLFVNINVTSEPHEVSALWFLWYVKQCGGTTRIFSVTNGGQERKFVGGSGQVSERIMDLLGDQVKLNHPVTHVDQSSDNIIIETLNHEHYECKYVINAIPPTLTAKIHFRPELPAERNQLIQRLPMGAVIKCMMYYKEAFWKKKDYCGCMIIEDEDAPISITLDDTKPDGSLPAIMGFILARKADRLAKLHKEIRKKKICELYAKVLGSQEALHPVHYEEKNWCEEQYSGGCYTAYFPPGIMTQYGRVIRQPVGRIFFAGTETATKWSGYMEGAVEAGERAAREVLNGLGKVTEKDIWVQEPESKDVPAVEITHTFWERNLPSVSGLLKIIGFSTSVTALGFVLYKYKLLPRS

[15] = test system: AChE; conditions: read-out: IC50 AChE; cited from earlier work
[16] = test system: hMAO-A; conditions: read-out: IC50 hMAO-A; selective hMAO-A inhibition; cited from earlier work
[17] = read-out: % inhibition of control agonist effect

Sequence of hD2L receptor (CHO-D2LR cells) (P14416 whole entry): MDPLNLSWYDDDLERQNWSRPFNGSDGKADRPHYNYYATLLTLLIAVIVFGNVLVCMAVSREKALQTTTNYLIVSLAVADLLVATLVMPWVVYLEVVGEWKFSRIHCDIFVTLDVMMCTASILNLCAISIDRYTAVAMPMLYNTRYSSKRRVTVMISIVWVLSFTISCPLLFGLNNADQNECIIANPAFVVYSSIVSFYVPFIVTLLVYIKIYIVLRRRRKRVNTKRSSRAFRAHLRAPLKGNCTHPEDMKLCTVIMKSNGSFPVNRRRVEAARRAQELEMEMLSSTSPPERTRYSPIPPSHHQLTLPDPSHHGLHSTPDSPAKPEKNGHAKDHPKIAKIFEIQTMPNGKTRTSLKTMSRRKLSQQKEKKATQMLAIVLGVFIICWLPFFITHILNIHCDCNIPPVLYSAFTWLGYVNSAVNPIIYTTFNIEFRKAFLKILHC
Sequence of hD1 receptor (CHO-D1R cells) (P21728 whole entry): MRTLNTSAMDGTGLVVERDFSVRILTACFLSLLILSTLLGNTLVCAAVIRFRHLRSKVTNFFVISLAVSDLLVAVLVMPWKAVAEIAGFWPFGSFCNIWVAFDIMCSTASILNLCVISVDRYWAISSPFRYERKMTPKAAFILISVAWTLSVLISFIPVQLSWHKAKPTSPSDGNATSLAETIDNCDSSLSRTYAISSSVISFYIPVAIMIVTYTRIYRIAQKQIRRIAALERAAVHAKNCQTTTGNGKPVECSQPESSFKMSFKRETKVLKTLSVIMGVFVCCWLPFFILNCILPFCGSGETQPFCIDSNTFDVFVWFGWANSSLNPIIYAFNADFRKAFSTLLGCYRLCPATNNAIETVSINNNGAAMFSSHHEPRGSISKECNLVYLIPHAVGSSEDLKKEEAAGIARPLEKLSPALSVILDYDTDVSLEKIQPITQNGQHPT
Sequence of human D1R (recombinant CHO-D1R membrane homogenates) (P21728 whole entry): as above
Sequence of human D3R (CHO-D3R membrane homogenates) (P35462 whole entry): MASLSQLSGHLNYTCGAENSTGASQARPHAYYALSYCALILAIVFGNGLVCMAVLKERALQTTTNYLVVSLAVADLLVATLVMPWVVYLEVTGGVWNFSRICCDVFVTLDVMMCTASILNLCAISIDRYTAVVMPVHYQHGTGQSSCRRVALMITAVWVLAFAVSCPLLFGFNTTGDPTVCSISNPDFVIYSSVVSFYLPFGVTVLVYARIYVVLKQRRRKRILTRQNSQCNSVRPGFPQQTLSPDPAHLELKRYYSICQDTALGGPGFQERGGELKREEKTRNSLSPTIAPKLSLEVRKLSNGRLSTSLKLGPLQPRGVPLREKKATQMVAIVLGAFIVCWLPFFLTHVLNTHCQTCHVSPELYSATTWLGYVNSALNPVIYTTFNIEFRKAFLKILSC
Sequence of human D2LR (transfected HEK-293 membrane homogenates) (P14416 whole entry): as the sequence (P14416 whole entry) above
Sequence of human V1AR (recombinant CHO-V1AR membrane homogenates) (P37288 whole entry): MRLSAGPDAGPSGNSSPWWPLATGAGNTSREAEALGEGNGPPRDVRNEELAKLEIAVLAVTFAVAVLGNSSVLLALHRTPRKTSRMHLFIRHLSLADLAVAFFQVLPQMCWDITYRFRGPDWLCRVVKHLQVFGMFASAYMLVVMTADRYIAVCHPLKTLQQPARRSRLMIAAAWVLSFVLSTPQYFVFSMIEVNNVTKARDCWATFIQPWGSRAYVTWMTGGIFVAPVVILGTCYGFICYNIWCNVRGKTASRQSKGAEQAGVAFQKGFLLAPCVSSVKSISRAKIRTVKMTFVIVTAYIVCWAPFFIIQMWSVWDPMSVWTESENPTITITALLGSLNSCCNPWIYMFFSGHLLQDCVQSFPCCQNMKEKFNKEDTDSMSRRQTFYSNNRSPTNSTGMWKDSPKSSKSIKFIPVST

C=C(C)[C@H](CC=C(C)C)Cc1c(O)cc(OC)c2c1O[C@H](c1ccc(O)cc1O)CC2=O [kurarinone]
agonist response in antagonist mode assay ([1]; 100 μM, D2LR, antagonist mode): at least 25% | % stimulation of control agonist effect ([1]; 100 μM, hD2L, agonist mode, control 10 μM DA): 113 ± 28.9% | agonist or agonist-like effect flag in antagonist mode ([1]; 100 μM, hD2L, antagonist mode): AGO (the test compound induced at least 25% agonist or agonist-like effect at this concentration) | EC50 ([1]; EC50 (50% of control agonist effect), hD2L, agonist mode, mean ± S.D., duplicate): 22.4 ± 3.46 µM | inhibition at 100 µM [1, 17]: 43.8% | IC50 [2]: 198 ± 12.7 µM | Inhibition type hMAO-B ([2]; Lineweaver-Burk plots): mixed | IC50 [3]: 5.29 ± 0.67 µM | % inhibition of control-specific binding [4]: 78.5% | EC50 [5]: 71.3 ± 4.94 µM | % stimulation of control agonist effect ([5]; 100 μM, hD4, agonist mode, control 1000 nm DA): 71.7 ± 6.36% | inhibition at 100 µM [5, 17]: -4.2% | inhibition at 50 µM [6]: 49.2% | IC50 [7]: 24.5 ± 1.73 µM | inhibition at 50 µM [8]: 47.6% | EC50 [9]: 8.1 ± 1.4 µM | % inhibition of control-specific binding [10]: > 70% | % inhibition of control-specific binding ([10]; listed as Kurarinone): 99.1% | % stimulation of control agonist effect ([11]; 100 μM, h5-HT1A, agonist mode, control 0.625 μM 5-HT): 17.8 ± 1.13% | inhibition at 100 µM [11, 17]: 30.3% | % stimulation of control agonist effect ([12]; 100 μM, hD1, agonist mode, control 10 μM DA): 0.25 ± 0.64% | inhibition at 100 µM [12, 17]: 98.5% | % inhibition of control-specific binding [13]: 71.1% | IC50 [14]: 186 ± 6.17 µM | Ki ([14]; Ki hMAO-A, Dixon and secondary plots): 65.1 ± 3.53 µM | Inhibition type hMAO-A ([14]; Lineweaver-Burk plots): competitive | IC50 [15]: 74.3 ± 7.85 µM

C=C(C)[C@H](CC=C(C)C)Cc1c(O)cc(O)c2c1O[C@H](c1ccc(O)cc1O)CC2=O [sophoraflavone G]
IC50 [16]: 38.8 ± 1.1 µM
